Assay results from patent US20140066365A1, “USE OF CALIXARENES ASSOCIATED WITH AN ANTIBIOTIC IN THE TREATMENT OF BACTERIAL INFECTIONS” (priority 2011, published 2014).
Like-named read-outs stand apart in the source and are kept apart here. One block for each compound: values may come before it.

What was measured:
[1] = system: Escherichia coli strain ATCC 25922 (wild type); assay: MIC of the compounds used alone, microdilution in a liquid medium (CLSI); assay type: cell-based; details: Escherichia coli, ATCC25922, E. coli ATCC 25922
From the text: (§1) The MICs of the antibiotics were previously defined for each strain, by the method of microdilution in a liquid medium (CLSI (Clinical and Laboratory Standards Institute), 2003).

[2] = system: Staphylococcus aureus strain ATCC 29213 (wild type); assay: as above; assay type: cell-based; details: Staphylococcus aureus, ATCC29213, S. aureus ATCC 29213
From the text: as §1

[3] = system: Pseudomonas aeruginosa strain ATCC 27853 (wild type); assay: as above; assay type: cell-based; details: Pseudomonas aeruginosa, ATCC27853; antiseptic alone, P. aeruginosa ATCC 27853; read-out: Initial MICs (mg/L), antiseptic (ATS)
From the text: as §1

[4] = as above; assay type: cell-based, Staphylococcus aureus; details: Staphylococcus aureus, MRSA; antibiotic alone (second value of cell); SaR4; read-out: MIC
From the text: as §1

[5] = system: MRSA strain having a resistance to the aminoglycosides and fluoroquinolones (SaR3); assay: as above; assay type: cell-based, Staphylococcus aureus; details: Staphylococcus aureus, MRSA; antibiotic alone (second value of cell); SaR3; read-out: MIC
From the text: as §1

[6] = system: MRSA strain without associated resistance (SaR1); assay: as above; assay type: cell-based, Staphylococcus aureus; details: Staphylococcus aureus, MRSA; antibiotic alone (second value of cell); SaR1; read-out: MIC
From the text: as §1

[7] = system: SaR1: Meticillin-Resistant Staphylococcus aureus without Associated Resistance; assay: Antibiogram, MIC by the VITEK 2 system; assay type: cell-based; details: SaR1
Description: (§2) The bacterial and antibiogramidentification is carried out by the VITEK 2 system (bioMérieux)

[8] = system: SaR3: Meticillin-Resistant Staphylococcus aureus; assay: Antibiogram by the disk diffusion technique; assay type: cell-based
Description: (§3) The bacterial and antibiogramidentification is carried out by the VITEK 2 system (bioMérieux) and by the disk diffusion technique

[9] = system: SaR4: Meticillin-Resistant Staphylococcus aureus; assay: Antibiogram, MIC by the VITEK 2 system; assay type: cell-based; details: SaR4; for MIC: Staphylococcus aureus, read-out: MIC
Description: as §3

[10] = system: SaR1: Meticillin-Resistant Staphylococcus aureus without Associated Resistance; assay: Antibiogram, inhibition diameter (Table D1); assay type: cell-based
Description: as §2

[11] = system: EcR2: Cephalosporinase-Hyperproducing Strain of Escherichia coli; assay: Antibiogram, MIC by the VITEK 1 system; assay type: cell-based; details: for MIC: Escherichia coli, read-out: MIC
Description: The bacterial and antibiogramidentification is carried out by the VITEK 1 system (bioMérieux) and by the disk diffusion technique

[12] = system: EcR1: Penicillinase-Producing Escherichia coli without Associated Resistance; assay: Antibiogram, MIC by the VITEK 2 system; assay type: cell-based; details: for MIC: Escherichia coli
Description: (§4) 5.1 EcR1: Penicillinase-Producing Escherichia coli without Associated Resistance The bacterial and antibiogramidentification is carried out by the VITEK 2 system (bioMérieux) and by the disk diffusion technique.

[13] = system: EcR1: Penicillinase-Producing Escherichia coli without Associated Resistance; assay: Antibiogram by the disk diffusion technique; assay type: cell-based; details: Table A1
Description: as §4

[14] = system: ESBL-producing strain of Escherichia coli, having an associated resistance to the aminoglycosides (EcR3); assay: MIC of the compounds used alone, microdilution in a liquid medium (CLSI); assay type: cell-based; details: Escherichia coli, antibiotic alone (second value of cell), read-out: Initial MICs
From the text: as §1

[15] = system: penicillinase-producing strain of Escherichia coli without associated resistance (EcR1); assay: as above; assay type: cell-based; details: Escherichia coli, antibiotic alone (second value of cell), read-out: Initial MICs
From the text: as §1

[16] = system: cephalosporinase-hyperproducing strain of Escherichia coli (EcR2); assay: as above; assay type: cell-based; details: Escherichia coli, antibiotic alone (second value of cell), read-out: Initial MICs
From the text: as §1

[17] = system: EcR3: ESBL-Producing Escherichia coli; assay: Antibiogram by the disk diffusion technique; assay type: cell-based
Description: The bacterial and antibiogramidentification is carried out by the VITEK 2 system (bioMerieux) and by the disk diffusion technique

[18] = antiseptic alone, read-out: Initial MICs (mg/L), antiseptic (ATS)
[19] = antibiotic alone (second value of cell), read-out: Initial MICs

MIC [1, 18]: < 1 mg/L | MIC [2, 18]: < 1 mg/L | MIC [3]: 4 mg/L
SMILES: [H]/N=C(\N/C(=N/[H])NCCCCCCNC(=N)NC(=N)Nc1ccc(Cl)cc1)Nc1ccc(Cl)cc1 [Chlorhexidine]

MIC [4]: > 32 µg/mL | MIC [5]: 0.5 µg/mL | MIC [6]: 0.5 µg/mL | MIC mg/L ([7]; Table D2): ≦0.25 mg/L | MIC ([7]; Staphylococcus aureus, Table D1, read-out: MIC): ≤ 0.25 µg/mL | MIC [2, 19]: 0.5 mg/L | MIC ([9]; Table F1): ≥ 8 µg/mL | MIC ([9]; Table F2, MIC): ≥ 8 µg/mL
SMILES: CC[C@H]1OC(=O)[C@H](C)[C@@H](O[C@H]2C[C@@](C)(OC)[C@@H](O)[C@H](C)O2)[C@H](C)[C@@H](O[C@@H]2O[C@H](C)C[C@H](N(C)C)[C@H]2O)[C@](C)(O)C[C@@H](C)C(=O)[C@H](C)[C@@H](O)[C@]1(C)O [Erythromycin]
CA-SFM Interpretation ([7]; Cc CA-SFM 2011): Susceptible | CLSI Interpretation ([7]; Cc CLSI 2011): Susceptible | EUCAST Interpretation ([7]; Cc EUCAST 2011): Susceptible | Results ([7]; Table D1, from MIC): Susceptible | CA-SFM Interpretation ([8]; Cd CA-SFM 2011): Susceptible | CLSI Interpretation ([8]; Cd CLSI 2011): Susceptible | EUCAST Interpretation ([8]; Cd EUCAST 2011): Susceptible | Diameter ([8]; Table E1): 25 mm | Results ([8]; Table E1, against Dmin Dmax): Susceptible | diameter in mm ([8]; Table E2): 25 mm | Results ([9]; Table F1, MIC): Resistant | CA-SFM Interpretation ([9]; from MIC, Cc CA-SFM 2011): Resistant | CLSI Interpretation ([9]; from MIC, Cc CLSI 2011): Resistant | EUCAST Interpretation ([9]; from MIC, Cc EUCAST 2011): Resistant | Diameter [10]: 25 mm | Results ([10]; from diameter, against Dmin Dmax): Susceptible

MIC [4]: > 32 µg/mL | MIC [5]: 8 µg/mL | MIC [6]: 0.25 µg/mL | MIC [2, 19]: 0.125 mg/L
SMILES: C[C@H]1COc2c(N3CCN(C)CC3)c(F)cc3c(=O)c(C(=O)O)cn1c23 [Levofloxacin]

MIC ([11]; EcR2, VITEK 1, Table B1): ≥ 32 µg/mL | MIC ([11]; EcR2, Table B2, MIC): ≥ 32 µg/mL | MIC ([12]; EcR1, Table A2, read-out: MIC mg/L (diameter in mm)): ≥ 32 mg/L | MIC ([12]; EcR1, VITEK 2, Table A1, read-out: MIC): ≥ 32 mg/L | MIC [14]: > 256 µg/mL | MIC [15]: > 256 µg/mL | MIC [16]: 256 µg/mL | MIC [1, 19]: 4 mg/L
SMILES: CC1(C)S[C@@H]2[C@H](NC(=O)[C@H](N)c3ccc(O)cc3)C(=O)N2[C@H]1C(=O)O [Amoxicillin]
Results ([11]; EcR2, Table B1): Resistant | CA-SFM Interpretation ([11]; EcR2, from MIC, Cc CA-SFM 2011): Resistant | CLSI Interpretation ([11]; EcR2, from MIC, Cc CLSI 2011): Resistant | EUCAST Interpretation ([11]; EcR2, from MIC, Cc EUCAST 2011): Resistant | CA-SFM Interpretation ([12]; EcR1, MIC against Cc CA-SFM 2011): Resistant | CLSI Interpretation ([12]; EcR1, MIC against Cc CLSI 2011): Resistant | EUCAST Interpretation ([12]; EcR1, MIC against Cc EUCAST 2011): Resistant | Results ([12]; EcR1, interpretation of the MIC, Table A1): Resistant | Diameter ([13]; EcR1, disk diffusion): 6 mm | Results ([13]; EcR1, interpretation of the diameter against Dmin Dmax): Resistant | CA-SFM Interpretation ([17]; Cd CA-SFM 2011): Resistant | CLSI Interpretation ([17]; Cd CLSI 2011): Resistant | EUCAST Interpretation ([17]; Cd EUCAST 2011): Resistant | Diameter ([17]; Table C1): 6 mm | Results ([17]; Table C1, against Dmin Dmax): Resistant | diameter in mm ([17]; Table C2): 6 mm
